Measured values reported in patent US20240285502A1, “HAIR GROWTH AGENT” (ADJUVANT HOLDINGS CO., LTD., priority 2021, published 2024).

Test system: VEGF gene expression in human dermal papilla cells
Test: Evaluation of human dermal papilla cell VEGF gene expression (real-time PCR)
Format: cell-based
Details: 72 hours stimulation, relative to negative control group, GAPDH internal standard, FIG. 1
Method: The VEGF gene is expressed in dermal papilla cells, and contributes to expression of such effects as increase in hair shaft diameter and improving maximum hair shaft length and improving hair shaft elongation rate and hair shaft growth promotion at head hair, beard, eyebrows, and/or eyelashes. Human dermal papilla cells were therefore used, and evaluation was carried out with respect to increase in VEGF gene expression for the respective components. Human dermal papilla cells (Catalog No. CA60205a; derived from person; Toyobo Co., Ltd. (Japan)) were purchased, testing and evaluation being carried out with maintenance and culture of cells being performed as described in the protocol. As drugs for testing, drug solutions of the following respective concentrations (final concentrations) were prepared and used. • Comparative Example 1: 30 μM minoxidil • Working Example 1: 0.3125 μM phytosphingosine • Working Example 2: 1.25 μM phytosphingosine • Working Example 3: Liquid mixture of 30 μM minoxidil and 1.25 μM phytosphingosine A 24-well plate was seeded with human dermal papilla cells so as to obtain 6×10^3 thereof per well. Following culture for 1 day within a CO2 incubator (5% CO2; 37° C.), the culture medium was replaced with culture medium which contained the respective drugs for testing. The cell plate was thereafter returned to the CO2 incubator, and this was further cultured for 72 hours. […] The GAPDH gene was used as an internal standard, the amount of VEGF gene expression being calculated relative to the negative control group. […] Concentration of the recovered RNA was measured using a NanoDrop Lite (Catalog No. ND-LITE; Thermo Fisher Scientific K.K.), and this was stored at -80° C. until the following cDNA creation procedure. […] II cDNA synthesis 5× Ready Mix (Catalog No. NE-LS64; Nippon Genetics Co., Ltd. (Japan)) was used to synthesize cDNA. […] II cDNA synthesis 5× Ready Mix was added to 16 μL of this sample solution, and this was agitated by vortexing. […]

| SMILES | change in amount of expression of the VEGF gene |
| --- | --- |
| CCCCCCCCCCCCCC[C@@H](O)[C@@H](O)[C@@H](N)CO [Working Example 2, phytosphingosine] | increase in dosage-dependent fashion in the amount of expression of the VEGF gene as compared with the control group |
| CCCCCCCCCCCCCC[C@@H](O)[C@@H](O)[C@@H](N)CO [phytosphingosine] | significantly greater than that which was produced as a result of action of minoxidil |
| CCCCCCCCCCCCCC[C@@H](O)[C@@H](O)[C@@H](N)CO [Working Example 1, phytosphingosine] | increase in dosage-dependent fashion in the amount of expression of the VEGF gene as compared with the control group |
